Assay results taken from patent publication US20260137662A1, “CD11B AGONISTS FOR TREATMENT OF AUTOIMMUNE DISEASE” (Rush University Medical Center, priority 2022, published 2026).

Columns and labels:
[1] = tested on: TLR7 mediated pro-inflammatory biomarkers; experiment: Secretion of pro-inflammatory biomarkers from myeloid cells stimulated with imiquimod (ELISA); format: cell-based; details: IMQ (20 ug/mL) and LA1 (20 uM) co-treatment, 4 hours
Experimental: FIG. 5A illustrates the levels of biomarker IL-1b secretion in myeloid cells after 4 hours of treatment with vehicle DMSO (UT), LA1 (20 uM), Imiquimod (IMQ) (20 ug/mL), or IMQ and LA1 co-treatment. Bars show mean with SD (N=3) (*P<0.05, **P<0.01, ***P<0.001, ***P<0.0001).
FIG. 5B illustrates the levels of biomarker suPAR secretion in myeloid cells after 4 hours of treatment with vehicle DMSO (UT), LA1 (20 uM), Imiquimod (IMQ) (20 ug/mL), or IMQ and LA1 co-treatment. Bars show mean with SD (N=3) (*P<0.05, **P<0.01, ***P<0.001, ***P<0.0001).
FIG. 5C illustrates the levels of biomarker IL-6 secretion in myeloid cells after 4 hours of treatment with vehicle DMSO (UT), LA1 (20 uM), Imiquimod (IMQ) (20 ug/mL), or IMQ and LA1 co-treatment. Bars show mean with SD (N=3) (*P<0.05, **P<0.01, ***P<0.001, ***P<0.0001).
FIG. 5D illustrates the levels of biomarker TNFalpha secretion in myeloid cells after 4 hours of treatment with vehicle DMSO (UT), LA1 (20 uM), Imiquimod (IMQ) (20 ug/mL), or IMQ and LA1 co-treatment.
FIG. 5E illustrates the levels of biomarker IFN-b secretion in myeloid cells after 4 hours of treatment with vehicle DMSO (UT), LA1 (20 uM), Imiquimod (IMQ) (20 ug/mL), or IMQ and LA1 co-treatment. Bars show mean with SD (N=3) (*P<0.05, **P<0.01, ***P<0.001, ****P<0.0001).
The concentration of TLR7 mediated pro-inflammatory biomarkers in untreated myeloid cells, myeloid cells treated with LA1, myeloid cells treated with IMQ, and myeloid cells co-treated with IMQ and LA1 was assessed by ELISA.

MRL/lpr mice = experiment: MRL/lpr mouse model of lupus and LN: alopecia and skin lesions; format: in vivo; details: for alopecia (nose area): Mrl/lpr mice
Description: FIG. 13B illustrates percentage of skin effected by alopecia on the nose area of untreated mice (Ctrl), mice treated with a vehicle (Veh), and mice treated with LA1 (LA1). […] Bars show mean +/−SEM (n=5).
FIG. 13C illustrates lesion size (mm) in untreated mice (Ctrl), mice treated with a vehicle (Veh), and mice treated with LA1 (LA1). […] Bars show mean +/−SEM (n=5).
To evaluate the efficacy of LA1 as a treatment for LN, MRL/ipr mouse models were used. MRL/lpr mice develop high circulating levels of IFN-I, systemic inflammation and multi-organ pathology, including skin, vascular, and kidney damage, and LN. Thus, this genetic mouse model mimics several features of human lupus and LN.

TLR7 mediated pathways = experiment: Relative gene expression (RT-PCR) in myeloid cells stimulated with imiquimod; format: cell-based; details: IMQ (20 ug/mL) and LA1 (20 uM) co-treatment, 4 hours
Experimental: FIG. 3A illustrates transcriptional levels of biomarker IL-1b in myeloid cells after 4 hours of treatment with vehicle DMSO (UT), LA1 (20 uM), imiquimod (IMQ) (20 ug/mL), or IMQ and LA1 co-treatment. Bars show mean with SD (N=3) (*P<0.05, **P<0.01, ***P<0.001, ***P<0.0001).
FIG. 3B illustrates transcriptional levels of biomarker uPAR in myeloid cells after 4 hours of treatment with vehicle DMSO (UT), LA1 (20 uM), imiquimod (IMQ) (20 ug/mL), or IMQ and LA1 co-treatment. Bars show mean with SD (N=3) (*P<0.05, **P<0.01, ***P<0.001, ***P<0.0001).
FIG. 3C illustrates transcriptional levels of biomarker IL-6 in myeloid cells after 4 hours of treatment with vehicle DMSO (UT), LA1 (20 uM), imiquimod (IMQ) (20 ug/mL), or IMQ and LA1 co-treatment. Bars show mean with SD (N=3) (*P<0.05, **P<0.01, ***P<0.001, ***P<0.0001).
FIG. 3D illustrates transcriptional levels of biomarker NLRP3 in myeloid cells after 4 hours of treatment with vehicle DMSO (UT), LA1 (20 uM), imiquimod (IMQ) (20 ug/mL), or IMQ and LA1 co-treatment. Bars show mean with SD (N=3) (*P<0.05, **P<0.01, ***P<0.001, ***P<0.0001).
The impact of CD11b activation by LA1 on TLR7 mediated pathways was assessed by treating myeloid cells with imiquimod (IMQ), a known TLR7 stimulant, and co-treating myeloid cells with IMQ and LA1. Relative gene expression of various biomarkers was assessed by RT-PCR.

[2] = tested on: TLR-stimulation dependent pro-inflammatory pathways; experiment: suPAR and TNFa secretion from myeloid (RAW) cells stimulated with TLR-stimulants or PMA (ELISA); format: cell-based, murine; details: co-treatment TLR-stimulant (LPS, PMA, Pam2CSK4, Pam3CSK4, IMQ) and LA1 (20 uM), 4 hours
Experimental: (§1) FIG. 2A illustrates the levels of biomarker suPAR secretion from RAW cells after treatment with LPS (50ng/ml), PMA (0.1 ug/mL), Pam2CSK4 (0.1 ug/mL), Pam3CSK4 (0.1 ug/mL), Imiquimod (IMQ) (20 ug/mL), LA1 (20 uM), or co-treatments. Bars show mean with SD (N=3) (*P<0.05, **P<0.01, ***P<0.001, ****P<0.0001).
as §1, with “2B” for “2A”, “biomarker (A)” for “biomarker”, “suPAR and (B) TNF-a” for “suPAR”
The effect of LA1 on TLR-stimulation dependent pro-inflammatory pathways was studied by stimulating myeloid cells with different TLR-stimulants (lipopolysaccharide (LPS), Pam2CSK 4, imiquimod (IMQ)) or with phorbol 12-myristate 13-acetate (PMA) and co-treating with LA1. The levels of suPAR (pg/mL) and TNFa (pg/mL) in cell supernatant were measured 4 hours after treatment using ELISA. […] Relative gene expression was also assessed in myeloid cells treated with Poly(I:C), a known toll-like receptor (TLR) agonist, and co-treated with LA1.

O=C(O)c1ccc(-c2ccc(/C=C3\SC(=S)N(Cc4ccccc4)C3=O)o2)cc1 [LA1, (Z)-4-(5-((3-benzyl-4-oxo-2-thioxothiazolidin-5-ylidene)methyl)furan-2-yl)benzoic acid]
TLR7-dependent increase in IL-1b level (ELISA) [1]: significantly reduced | TLR7-dependent increase in IL-6 level (ELISA) [1]: significantly reduced | TLR7-dependent increase in TNF-a level (ELISA) [1]: significantly reduced | TLR7-dependent increase in uPAR level (ELISA) [1]: significantly reduced | skin lesions (MRL/lpr mice; Mrl/lpr mice treated with LA1, co-treatment and delayed treatment): reduces clinical symptoms | alopecia (nose area) (MRL/lpr mice; LA1 as co-treatment): reduction in alopecia | alopecia (nose area) (MRL/lpr mice; LA1 treatment after 2-weeks of disease onset): reduction in alopecia | TLR7-dependent increase in IL-1b expression level (TLR7 mediated pathways): significantly reduced | TLR7-dependent increase in IL-6 expression level (TLR7 mediated pathways): significantly reduced | TLR7-dependent increase in NLRP3 expression level (TLR7 mediated pathways): significantly reduced | TLR7-dependent increase in uPAR expression level (TLR7 mediated pathways): significantly reduced | levels of biomarker TNFa in cell supernatant [2]: significantly reduced | levels of biomarker suPAR in cell supernatant [2]: significantly reduced
